From patent US20260022142A1, “MACROCYCLIC IMMUNOMODULATORS” (Bristol-Myers Squibb Company, priority 2022, published 2026) come the findings set out here.

Bridge positions count the residues as written; N and C are the ends. Square brackets hold non-standard residues; d marks the D form. Peptide text beside a SMILES is read from it. * marks the point of attachment. Phe(4-COOH) = N[C@@H](Cc1ccc(C(=O)O)cc1)C(=O)O; Bip = N[C@@H](Cc1ccc(-c2ccccc2)cc1)C(=O)O; Phe(3-Me) = Cc1cccc(C[C@H](N)C(=O)O)c1; Cha = N[C@@H](CC1CCCCC1)C(=O)O; Carboxymethyl = O=C(O)C*; Orn = NCCC[C@H](N)C(=O)O; Aun = NCCCCCCCCCCC(=O)O; Dab = NCC[C@H](N)C(=O)O; Dap = NC[C@H](N)C(=O)O; AEEA = NCCOCCOCC(=O)O

In this experiment the target is T1, PD-1/PD-L1 interaction (PE-labeled human PD-L1-Ig binding to Jurkat cell line over-expressing human PD-1) (Homo sapiens, UniProt Q15116).
T1 construct: expressed in transfected cells; host or cells: Jurkat
T1 sequence (Q15116 25-288): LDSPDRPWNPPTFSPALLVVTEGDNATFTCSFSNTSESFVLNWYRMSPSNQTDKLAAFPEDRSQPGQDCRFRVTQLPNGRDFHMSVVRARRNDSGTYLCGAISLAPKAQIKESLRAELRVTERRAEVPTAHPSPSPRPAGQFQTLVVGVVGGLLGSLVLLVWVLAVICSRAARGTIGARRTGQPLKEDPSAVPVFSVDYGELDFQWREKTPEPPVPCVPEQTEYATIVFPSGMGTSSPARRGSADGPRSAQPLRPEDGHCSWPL
Put plainly: Jurkat-PD-1 Cell Binding High-Content Screening Assay (CBA). Type of experiment: cell-based. Particulars: Jurkat cell line over-expressing human PD-1; PE-labeled PD-L1-Ig 20 nM final; read-out: Jurkat hPD1-PDL1 IC50. Summed up:
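First, compound is added to PD-1-expressing Jurkat cells in serum-containing DMEM and left 2 h at 37° C. Next, PE-conjugated PD-L1-Ig is introduced at 20 nM final concentration for 1 hour. Finally, cells are fixed in 4% paraformaldehyde with Hoechst 33342, washed and imaged.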
On to `Cc1cccc(C[C@@H]2NC(=O)[C@H](CC(=O)O)NC(=O)[C@H](Cc3ccc(OCC(=O)O)cc3)NC(=O)[C@H](CN)NC(=O)CSC[C@@H](C(=O)N[C@@H](CCN)C(=O)NCCCCCCCCCCC(=O)O)NC(=O)[C@H](CCCN)NC(=O)[C@H](C(C)C)NC(=O)[C@H](CC3CCCCC3)NC(=O)[C@H](CCN)NC(=O)[C@@H](CC(C)C)NC(=O)[C@H](CCCN)NC(=O)[C@H](C(C)C)NC(=O)[C@H](Cc3ccc(-c4ccccc4)cc3)NC(=O)[C@H](C(C)C)NC2=O)c1` [Compound 2559] ({CH2CO}-[Dap]Y(Carboxymethyl)D[Phe(3-Me)]V[Bip]V[Orn][dL][Dab][Cha]V[Orn]C[Dab][Aun]-OH; thioether N-14), for which the IC50 – broadly, the concentration needed to halve the response being measured – was determined as 11.3 nM.

Consider `Cc1cccc(C[C@@H]2NC(=O)[C@H](CC(=O)O)NC(=O)[C@H](Cc3ccc(OCC(=O)O)cc3)NC(=O)[C@H](CN)NC(=O)CSC[C@@H](C(=O)N[C@@H](CCN)C(=O)NCCCCCCCCCCC(=O)O)NC(=O)[C@H](CCCNC(=N)N)NC(=O)[C@H](C(C)C)NC(=O)[C@H](CC3CCCCC3)NC(=O)[C@H](CCN)NC(=O)[C@@H](CC(C)C)NC(=O)[C@H](CCCN)NC(=O)[C@H](C(C)C)NC(=O)[C@H](Cc3ccc(-c4ccccc4)cc3)NC(=O)[C@H](C(C)C)NC2=O)c1` [Compound 2560] ({CH2CO}-[Dap]Y(Carboxymethyl)D[Phe(3-Me)]V[Bip]V[Orn][dL][Dab][Cha]VRC[Dab][Aun]-OH; thioether N-14), for which the IC50 was 17 nM.

As to `CC(C)C[C@H]1NC(=O)[C@H](CCCN)NC(=O)[C@H](C(C)C)NC(=O)[C@H](Cc2ccc(-c3ccccc3)cc2)NC(=O)[C@H](C(C)C)NC(=O)[C@H](Cc2c[nH]c3ccccc23)NC(=O)[C@H](CC(=O)O)NC(=O)[C@H](Cc2ccc(OCC(=O)O)cc2)NC(=O)[C@H](Cc2ccc(OCC(=O)O)cc2)NC(=O)CSC[C@@H](C(=O)N[C@@H](CCN)C(=O)NCCCCCCCCCCC(=O)O)NC(=O)[C@H](CCCN)NC(=O)[C@H](C(C)C)NC(=O)[C@H](CC2CCCCC2)NC(=O)[C@H](CCN)NC1=O` [Compound 2561] ({CH2CO}-Y(Carboxymethyl)Y(Carboxymethyl)DWV[Bip]V[Orn][dL][Dab][Cha]V[Orn]C[Dab][Aun]-OH; thioether N-14), the IC50 turned out to be 14.6 nM.

On to `CC(C)C[C@H]1NC(=O)[C@H](CCCN)NC(=O)[C@H](C(C)C)NC(=O)[C@H](Cc2ccc(-c3ccccc3)cc2)NC(=O)[C@H](C(C)C)NC(=O)[C@H](Cc2c[nH]c3ccccc23)NC(=O)[C@H](CC(=O)O)NC(=O)[C@H](Cc2ccc(OCC(=O)O)cc2)NC(=O)[C@H](Cc2ccc(OCC(=O)O)cc2)NC(=O)CSC[C@@H](C(=O)N[C@@H](CCN)C(=O)NCCCCCCCCCCC(=O)O)NC(=O)[C@H](CN)NC(=O)[C@H](C(C)C)NC(=O)[C@H](CC2CCCCC2)NC(=O)[C@H](CCN)NC1=O` [Compound 2562] ({CH2CO}-Y(Carboxymethyl)Y(Carboxymethyl)DWV[Bip]V[Orn][dL][Dab][Cha]V[Dap]C[Dab][Aun]-OH; thioether N-14), for which the IC50 amounted to 39.2 nM.

On to `CC(C)C[C@H]1NC(=O)[C@H](CCCN)NC(=O)[C@H](C(C)C)NC(=O)[C@H](Cc2ccc(-c3ccccc3)cc2)NC(=O)[C@H](C(C)C)NC(=O)[C@H](Cc2c[nH]c3ccccc23)NC(=O)[C@H](CC(=O)O)NC(=O)[C@H](Cc2ccc(C(=O)O)cc2)NC(=O)[C@H](Cc2ccc(OCC(=O)O)cc2)NC(=O)CSC[C@@H](C(=O)NCCOCCOCC(=O)NCCCCCCCCCCC(=O)O)NC(=O)[C@H](CCCCN)NC(=O)[C@H](C(C)C)NC(=O)[C@H](CC2CCCCC2)NC(=O)[C@H](CCN)NC1=O` [Compound 2563] ({CH2CO}-Y(Carboxymethyl)[Phe(4-COOH)]DWV[Bip]V[Orn][dL][Dab][Cha]VKC[AEEA][Aun]-OH; thioether N-14), for which the IC50 stood at 29.3 nM.
